Target: T1, α1β3 GABAAR (α1His-FLAGβ3) (Homo sapiens, UniProt P14867+P28472)
T1 construct: inserted between the fourth and fifth residues of the mature peptide; photolabeling full-length heteropentameric GABAARs in native membranes; expressed in transfected cells
T1 sequence (P14867 28-456): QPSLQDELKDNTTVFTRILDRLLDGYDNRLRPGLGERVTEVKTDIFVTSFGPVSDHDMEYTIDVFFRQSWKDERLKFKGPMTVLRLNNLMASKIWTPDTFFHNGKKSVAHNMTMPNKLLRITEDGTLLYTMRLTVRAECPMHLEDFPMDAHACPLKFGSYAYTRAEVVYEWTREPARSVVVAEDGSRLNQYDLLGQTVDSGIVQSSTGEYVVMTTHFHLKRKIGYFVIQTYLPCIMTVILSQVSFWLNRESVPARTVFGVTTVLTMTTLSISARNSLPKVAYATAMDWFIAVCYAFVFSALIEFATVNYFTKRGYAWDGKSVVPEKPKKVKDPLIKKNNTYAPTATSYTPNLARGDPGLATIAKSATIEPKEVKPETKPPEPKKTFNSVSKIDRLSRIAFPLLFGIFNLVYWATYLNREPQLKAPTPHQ
T1 sequence (P28472 26-473): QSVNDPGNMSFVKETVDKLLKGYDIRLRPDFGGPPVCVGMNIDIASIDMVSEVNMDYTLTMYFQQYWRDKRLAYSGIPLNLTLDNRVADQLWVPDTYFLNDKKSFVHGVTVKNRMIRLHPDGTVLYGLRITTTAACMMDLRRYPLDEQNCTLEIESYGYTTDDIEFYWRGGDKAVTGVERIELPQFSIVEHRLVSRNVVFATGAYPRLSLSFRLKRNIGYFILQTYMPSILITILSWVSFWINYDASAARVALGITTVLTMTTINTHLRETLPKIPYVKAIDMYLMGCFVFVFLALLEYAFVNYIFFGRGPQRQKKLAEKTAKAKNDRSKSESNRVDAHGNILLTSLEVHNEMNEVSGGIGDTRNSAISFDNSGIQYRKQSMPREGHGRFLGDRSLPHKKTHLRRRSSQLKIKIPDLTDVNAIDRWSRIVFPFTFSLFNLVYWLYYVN
Assay: Neurosteroid photolabeling and competition, middle-down mass spectrometry
Type: binding
Settings: for Prevention of KK200 photolabeling of α1N408 in the α1 intrasubunit site / Prevention of KK200 photolabeling of β3G308 in the intersubunit site: 3 μM KK200; for Photolabeling efficiency of α1 subunit TM4 (Y415, α1 intrasubunit site) / Photolabeling efficiency of β3 subunit TM4 peptide (β3 intrasubunit site): 30 μM photolabeling reagent
Description: The syntheses of neurosteroid photolabeling reagents (KK148, KK150, KK200, KK123) are detailed in previous reports ([Jiang et al., 2016]; [Cheng et al., 2018]). […] For the photolabeling competition experiments, 3 μM KK200 or KK123 in the presence of 30 μM competitor (3α5αP, KK148, KK150, and 3β5αP) or the same volume of ethanol was added to the membrane proteins and incubated on ice for 1 hr. The samples were then irradiated in a quartz cuvette for 5 min, by using a photoreactor emitting light at >320 nm. The membrane proteins were then collected by centrifugation at 20,000 g at 4°C for 45 min. The photolabeled membrane proteins were resuspended in lysis buffer containing 1% n-dodecyl-β-D-maltoside (DDM), 0.25% cholesteryl hemisuccinate (CHS), 50 mM Tris (pH 7.5), 150 mM NaCl, 2 mM CaCl2, 5 mM KCl, 5 mM MgCl2, 1 mM EDTA, 10% glycerol at a final concentration of 1 mg/ml. The membrane protein suspension was homogenized using a glass mortar and a Teflon pestle and incubated at 4°C overnight. The protein lysate was centrifuged at 20,000 g at 4°C for 45 min and supernatant was incubated with 0.5 ml anti-FLAG agarose (Sigma) at 4°C for 2 hr. The anti-FLAG agarose was then transferred to an empty column, followed by washing with 20 ml washing buffer (50 mM triethylammonium bicarbonate and 0.05% DDM). The GABAARs were eluted with aliquots of 200 μg/ml FLAG tag peptide and 100 μg/ml 3X FLAG (ApexBio) in the washing buffer. The pooled eluates (9 ml) containing GABAARs were concentrated to 100 μl using 100 kDa cut-off centrifugal filters.
The purified α1β3 GABAAR (100 μl) was reduced with 5 mM tris(2-carboxyethyl)phosphine for 1 hr, alkylated with 5 mM N-ethylmaleimide (NEM) for 1 hr, and quenched with 5 mM dithiothreitol (DTT) for 15 min. These three steps were done at RT. Samples were then digested with 8 μg of trypsin for 7 days at 4°C to obtain maximal recovery of TMD peptides. The digestions were terminated by adding formic acid in a final concentration of 1%, followed directly by LC-MS analysis on an Orbitrap Elite mass spectrometer. 20 μl samples were injected into a home-packed PLRP-S (Agilent, Santa Clara, CA) column (10 cm ×75 μm, 300 Å), separated with a 145 min gradient from 10% to 90% acetonitrile, and introduced to the mass spectrometer at 800 nl/min with a nanospray source. MS acquisition was set as a MS1 Orbitrap scan (resolution of 60,000) followed by top 20 MS2 Orbitrap scans (resolution of 15,000) using data-dependent acquisition, and exclusion of singly charged precursors. Fragmentation was performed using high-energy dissociation with normalized energy of 35%. Analysis of data sets was performed using Xcalibur (Thermo Fisher Scientific) to manually search for TM1, TM2, TM3 or TM4 tryptic peptides with or without neurosteroid photolabeling modifications. Photolabeling efficiency was estimated by generating extracted chromatograms of unlabeled and labeled peptides, determining the area under the curve, and calculating the abundance of labeled peptide/(unlabeled + labeled peptide). Analysis of statistical significance comparing the photolabeling efficiency of KK200 and KK123 for α1β3 GABAAR was determined using one-way ANOVA with Bonferroni's multiple comparisons test and paired t-test, respectively (Prism 6, GraphPad Software, San Diego, CA). MS2 spectra of photolabeled TMD peptides were analyzed by manual assignment of fragment ions with and without photolabeling modification. Fragment ions were accepted based on the presence of a monoisotopic mass within 20 ppm mass accuracy. In addition to manual analysis, PEAKS (Bioinformatics Solutions Inc, Waterloo, ON, Canada) database searches were performed for data sets of photolabeled α1β3 GABAAR. […]

SMILES | Prevention of KK200 photolabeling of α1N408 in the α1 intrasubunit site (30 μM competitor) | Prevention of KK200 photolabeling of β3G308 in the intersubunit site (30 μM competitor) | Inhibition of KK123 photolabeling at the α1 (α1Y415) and β3 (β3Y442) intrasubunit sites (30 μM competitor, 3 μM KK123) | Photolabeling efficiency of α1 subunit TM4 (Y415, α1 intrasubunit site) | Photolabeling efficiency of β3 subunit TM4 peptide (β3 intrasubunit site)
CC(=O)[C@H]1CC[C@H]2[C@@H]3CC[C@H]4C[C@H](O)CC[C@]4(C)[C@H]3CC[C@]12C [3α5αP, allopregnanolone] | prevented | prevented | – | – | –
CC(=O)[C@H]1CC[C@H]2[C@@H]3CC[C@H]4C[C@@H](O)CC[C@]4(C)[C@H]3CC[C@]12C [3β5αP, epi-allopregnanolone] | prevented | does not bind to the intersubunit site | completely inhibited | – | –
C#CCCO[C@H]1CC[C@H]2[C@@H]3CC[C@H]4CC5(CC[C@]4(C)[C@H]3CC[C@]12C)N=N5 [KK148] | prevented | prevented | – | 0.77% | 0.13%
C#CCCO[C@@H]1CC[C@H]2[C@@H]3CC[C@H]4CC5(CC[C@]4(C)[C@H]3CC[C@]12C)N=N5 [KK150] | prevented | prevented | – | 0.62% | 0.19%

— article PMC7532004, “Site-specific effects of neurosteroids on GABAA receptor activation and desensitization” (eLife, 2020)
